Laboratory results: patent US20080200515A1, “SOLID STATE FORMS OF ENANTIOPURE ILAPRAZOLE” (TAP PHARMACEUTICAL PRODUCTS INC., priority 2006, published 2008)

How the values were obtained:
[1] = system: acid-related gastric and duodenal ulcers; assay: Phase 2 clinical studies with ilaprazole in patients with gastric-acid related disorders; type: in vivo, human; conditions: at the doses studied
[2] = system: gastric acid; assay: Phase 1 clinical studies with ilaprazole: suppression of gastric acid; type: in vivo, human; conditions: at the doses studied

COc1ccnc(C[S+]([O-])c2nc3cc(-n4cccc4)ccc3[nH]2)c1C (stereo not drawn) [ilaprazole, 2[[(4-methoxy-3-methyl-2-pyridinyl)-methyl]sulfinyl]-5-(1H-pyrrol-1-yl) 1H-Benzimidazole]
healing of acid-related gastric and duodenal ulcers [1]: promoted rapid healing
symptomatic relief ([1]; patients with gastric-acid related disorders): provided symptomatic relief
suppression of gastric acid [2]: suppression of gastric acid occurs over a 24-hour period
